# Experiments:
# [1] = system: tight junction; parameters: species or system BALB/c mice; details: mouse, in vivo, iv
# [2] = system: epithelial and endothelial tissues; details: in vivo
# [3] = target: PTEN (Homo sapiens, UniProt P60484); assay type: biochemical
# Chain of PTEN (P60484 whole entry): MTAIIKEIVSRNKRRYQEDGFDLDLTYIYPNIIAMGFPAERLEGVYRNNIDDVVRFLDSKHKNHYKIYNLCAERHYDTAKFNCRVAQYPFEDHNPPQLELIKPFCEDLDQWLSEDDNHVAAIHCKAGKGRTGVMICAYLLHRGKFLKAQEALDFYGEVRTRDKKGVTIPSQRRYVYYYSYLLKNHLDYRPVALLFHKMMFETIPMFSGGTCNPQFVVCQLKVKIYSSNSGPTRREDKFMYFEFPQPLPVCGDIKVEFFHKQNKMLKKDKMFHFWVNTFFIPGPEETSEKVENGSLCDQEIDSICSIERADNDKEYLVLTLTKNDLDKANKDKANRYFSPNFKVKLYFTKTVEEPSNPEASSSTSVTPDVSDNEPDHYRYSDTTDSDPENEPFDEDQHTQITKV
substance,measurement,setting,value
"1-D-Myo-inositol 1,2,6-triphosphate [alpha trinositol]",effect on tight junction disturbance,[1],have a counterbalancing effect
"sodium salt of D-myo-inositol-1,2,6-trisphosphate",progressive deterioration of the structure and function of anatomical structures in epithelial and endothelial tissues,[2],prevented this deterioration
same,confirmation of the prevention of tissue deterioration,[2]; iv,confirmed
zinc ions,activity of PTEN,[3],inhibit the activity of PTEN

# — US20160074421A1 (priority 2014, published 2016)
